Measured values reported in ChEMBL document CHEMBL3124857, “Encoded library technology as a source of hits for the discovery and lead optimization of a potent and selective class of bactericidal direct inhibitors of Mycobacterium tuberculosis InhA” (J Med Chem, 2014).
Converted amounts (≈) assume the structure as drawn. The source made the active and inactive calls. The calls are words filed in the database; no cut-off is given here.

Experiments:
[1] = target: T1, Enoyl-[acyl-carrier-protein] reductase [NADH] (Mycobacterium tuberculosis, UniProt P9WGR1); assay: Inhibition of Mycobacterium tuberculosis full length biotinylated InhA (270 amino acids) using DDCoA as substrate assessed as NADH oxidation by fluorimetric analysis
T1 sequence (P9WGR1 whole entry): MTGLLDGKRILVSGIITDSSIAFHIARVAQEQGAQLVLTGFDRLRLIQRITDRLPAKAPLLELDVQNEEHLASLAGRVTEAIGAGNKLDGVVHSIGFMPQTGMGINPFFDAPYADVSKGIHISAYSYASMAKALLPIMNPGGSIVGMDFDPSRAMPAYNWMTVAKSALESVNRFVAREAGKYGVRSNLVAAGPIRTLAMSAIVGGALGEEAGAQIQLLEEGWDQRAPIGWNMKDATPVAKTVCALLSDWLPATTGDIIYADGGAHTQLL

[2] = test system: Mycobacterium tuberculosis; assay: Antitubercular activity against wild type Mycobacterium tuberculosis H37Rv ATCC 25618 assessed as growth inhibition after 6 days by resazurin dye-based assay; format: functional; conditions: for MIC90: H37Rv ATCC 25618, 144 h
[3] = Kinetic solubility of the compound after 1 hr by CLND assay; format: physicochemical; conditions: 1 h
[4] = Drug degradation assessed as formation of 2-((2S,4R)-1-(benzofuran-3-carbonyl)-4-(3-ethyl-1-methyl-1H-pyrazole-5-carboxamido)pyrrolidine-2-carboxamido)acetic acid; format: physicochemical

Structure (SMILES) | IC50 [1] [µM] | MIC90 [2] [µM] | Kinetic_solubility [3] | Stability [4] | growth inhibition (GI) [2]
CCc1cc(C(=O)N[C@@H]2C[C@@H](C(=O)NCc3ccccn3)N(C(=O)c3coc4ccccc34)C2)n(CC)n1 | 0.002 | 0.7 (≈ 0.36 µg/mL) |  |  | 
CCc1cc(C(=O)N[C@@H]2C[C@@H](C(=O)Nc3ccn(CC4CCCCC4)n3)N(C(=O)c3coc4ccccc34)C2)n(C)n1 | > 1 | > 31 |  |  | 
COC(=O)CNC(=O)[C@@H]1C[C@@H](NC(=O)c2cc(C3CC3)nn2C)CN1C(=O)c1coc2ccccc12 | 0.015 | 1 (≈ 0.494 µg/mL) |  |  | 
CCc1cc(C(=O)N[C@@H]2C[C@@H](C(=O)Nc3ccccn3)N(C(=O)c3coc4ccccc34)C2)n(C)n1 | 0.011 | 4 (≈ 1.95 µg/mL) |  |  | 
CCc1cc(C(=O)N[C@@H]2C[C@@H](C(=O)NCc3nc(C)no3)N(C(=O)c3coc4ccccc34)C2)n(C)n1 | 0.007 | 2 (≈ 1.01 µg/mL) |  |  | 
CCc1cc(C(=O)N[C@@H]2C[C@@H](C(=O)NCCN(C)C)N(C(=O)c3coc4ccccc34)C2)n(C)n1 | 0.17 | > 31 |  |  | 
CCc1cc(C(=O)N[C@@H]2C[C@@H](C(=O)Nc3ccc4c(c3)B(O)OC4)N(C(=O)c3coc4ccccc34)C2)n(C)n1 | 0.026 | 4 (≈ 2.17 µg/mL) |  |  | 
CCc1cc(C(=O)N[C@@H]2C[C@@H](C(=O)NCc3nc(C)no3)N(C(=O)c3coc4ccccc34)C2)n(CC)n1 | 0.004 | 0.5 (≈ 0.26 µg/mL) |  |  | 
CCc1cc(C(=O)N[C@@H]2C[C@@H](C(=O)NCc3ccc4c(c3)B(O)OC4)N(C(=O)c3coc4ccccc34)C2)n(CC)n1 | 0.002 | 0.2 (≈ 0.114 µg/mL) |  |  | 
CCc1cc(C(=O)N[C@@H]2C[C@@H](C(=O)N[C@H](CO)Cc3ccccc3)N(C(=O)c3coc4ccccc34)C2)n(C)n1 | 0.112 | 1 (≈ 0.544 µg/mL) |  |  | 
CCc1cc(C(=O)N[C@@H]2C[C@@H](C(=O)NCC(=O)OC)N(C(=O)c3coc4ccccc34)C2)n(CCO)n1 | > 1 | > 31 |  |  | 
CCc1cc(C(=O)N[C@@H]2C[C@@H](C(=O)NCCNC(C)=O)N(C(=O)c3coc4ccccc34)C2)n(C)n1 | 0.02 | 4 (≈ 1.98 µg/mL) |  |  | 
CCc1cc(C(=O)N[C@@H]2C[C@@H](C(=O)OC)N(C(=O)c3coc4ccccc34)C2)n(C)n1 | 0.215 |  |  |  | 
CCc1cc(C(=O)N[C@@H]2C[C@@H](C(=O)NCc3ccn(CC)n3)N(C(=O)c3coc4ccccc34)C2)n(C)n1 | 0.032 | 4 (≈ 2.07 µg/mL) |  |  | 
CCc1cc(C(=O)N[C@@H]2C[C@@H](C(=O)Nc3nc(C)co3)N(C(=O)c3coc4ccccc34)C2)n(C)n1 | 0.009 | 8 (≈ 3.92 µg/mL) |  |  | 
CCc1cc(C(=O)N[C@@H]2C[C@@H](C(=O)NC3CCCC3)N(C(=O)c3coc4ccccc34)C2)n(C)n1 | 0.04 | 4 (≈ 1.91 µg/mL) |  |  | 
CCNC(=O)[C@@H]1C[C@@H](NC(=O)c2cc(CC)nn2C)CN1C(=O)c1ccc2occc2c1 | 0.074 |  |  |  | 
CCc1cc(C(=O)N[C@@H]2C[C@@H](C(=O)NCc3ccc(F)c(F)c3)N(C(=O)c3coc4ccccc34)C2)n(C)n1 | 0.009 | 2 (≈ 1.07 µg/mL) |  |  | 
CCc1cc(C(=O)N[C@@H]2C[C@@H](C(=O)NCC(F)(F)F)N(C(=O)c3coc4ccccc34)C2)n(C)n1 | 0.046 | 4 (≈ 1.97 µg/mL) |  |  | 

Structure (SMILES) | IC50 [1] [µM] | MIC90 [2] [µM] | Kinetic_solubility [3] | Stability [4] | growth inhibition (GI) [2]
CCc1cc(C(=O)N[C@@H]2C[C@@H](C(=O)NCC(=O)OC)N(C(=O)c3coc4ccccc34)C2)n(Cc2ccccc2)n1 | > 1 | > 31 |  |  | 
CCOC(=O)CCNC(=O)[C@@H]1C[C@@H](NC(=O)c2cc(CC)nn2C)CN1C(=O)c1coc2ccccc12 | 0.022 | 4 (≈ 2.04 µg/mL) |  |  | 
CCc1cc(C(=O)N[C@@H]2C[C@@H](C(=O)NCCc3ccccn3)N(C(=O)c3coc4ccccc34)C2)n(CC)n1 | 0.004 | 0.5 (≈ 0.264 µg/mL) |  |  | 
CCc1cc(C(=O)N[C@@H]2C[C@@H](C(=O)Nc3cnn(CC)n3)N(C(=O)c3coc4ccccc34)C2)n(C)n1 | 0.003 | 4 (≈ 2.02 µg/mL) |  |  | 
CCc1cc(C(=O)N[C@@H]2C[C@@H](C(=O)NCc3ccc(C(F)(F)F)cc3)N(C(=O)c3coc4ccccc34)C2)n(C)n1 | 0.042 | 16 (≈ 9.08 µg/mL) |  |  | 
CCc1cc(C(=O)N[C@@H]2C[C@@H](C(=O)NCc3nccs3)N(C(=O)c3coc4ccccc34)C2)n(C)n1 | 0.017 | 2 (≈ 1.01 µg/mL) |  |  | 
CCc1cc(C(=O)N[C@@H]2C[C@@H](C(=O)NCC(=O)OC)N(C(=O)c3coc4ccccc34)C2)n(C)n1 | 0.005 | 0.5 (≈ 0.241 µg/mL) | soluble | Unstable | 
CCc1cc(C(=O)N[C@@H]2C[C@@H](C(=O)N(CC)CC)N(C(=O)c3coc4ccccc34)C2)n(C)n1 | 0.948 | > 31 |  |  | 
CCc1cc(C(=O)N[C@@H]2C[C@@H](C(=O)NCC(=O)OC)N(C(=O)c3coc4ccccc34)C2)n(CC)n1 | 0.003 | 0.05 (≈ 0.0248 µg/mL) |  |  | 
CCc1cc(C(=O)N[C@@H]2C[C@@H](C(=O)NCC3CCCO3)N(C(=O)c3coc4ccccc34)C2)n(C)n1 (some centres undefined) | 0.045 | 4 (≈ 1.97 µg/mL) |  |  | 
CCc1cc(C(=O)N[C@@H]2C[C@@H](C(=O)NCC(=O)N(C)C)N(C(=O)c3coc4ccccc34)C2)n(C)n1 |  |  |  |  | Active
CCc1cc(C(=O)N[C@@H]2C[C@@H](C(=O)NCc3cnc(C)cn3)N(C(=O)c3coc4ccccc34)C2)n(C)n1 | 0.022 | 8 (≈ 4.12 µg/mL) |  |  | 
CCc1cc(C(=O)N[C@@H]2C[C@@H](C(=O)NCC(=O)NC)N(C(=O)c3coc4ccccc34)C2)n(C)n1 |  |  |  |  | Active
CCc1cc(C(=O)N[C@@H]2C[C@@H](C(=O)NCCOC)N(C(=O)c3coc4ccccc34)C2)n(C)n1 | 0.014 | 4 (≈ 1.87 µg/mL) |  |  | 
CCc1cc(C(=O)N[C@@H]2C[C@@H](C(=O)Nc3cc(C)on3)N(C(=O)c3coc4ccccc34)C2)n(C)n1 | 0.018 | 16 (≈ 7.85 µg/mL) |  |  | 
CCCc1cc(C(=O)N[C@@H]2C[C@@H](C(=O)NCC(=O)OC)N(C(=O)c3coc4ccccc34)C2)n(C)n1 | 0.022 | 0.5 (≈ 0.248 µg/mL) |  |  | 
CCc1cc(C(=O)N[C@@H]2C[C@@H](C(=O)Nc3ccn(C)n3)N(C(=O)c3coc4ccccc34)C2)n(C)n1 | 0.007 | 4 (≈ 1.96 µg/mL) |  |  | 
CCc1cc(C(=O)N[C@@H]2C[C@@H](C(=O)NCCc3ccccn3)N(C(=O)c3coc4ccccc34)C2)n(C)n1 | 0.025 | 1 (≈ 0.515 µg/mL) |  |  | 
CCc1cc(C(=O)N[C@@H]2C[C@@H](C(=O)NCc3ncco3)N(C(=O)c3coc4ccccc34)C2)n(C)n1 | 0.005 | 1 (≈ 0.491 µg/mL) |  |  | 

Structure (SMILES) | IC50 [1] [µM] | MIC90 [2] [µM] | Kinetic_solubility [3] | Stability [4] | growth inhibition (GI) [2]
CCc1cc(C(=O)N[C@@H]2C[C@@H](C(=O)NCc3ccc(OC(F)(F)F)cc3)N(C(=O)c3coc4ccccc34)C2)n(C)n1 | 0.005 | 23.4 (≈ 13.7 µg/mL) |  |  | 
CCc1cc(C(=O)N[C@@H]2C[C@@H](C(=O)NCC3OB(O)c4ccccc43)N(C(=O)c3coc4ccccc34)C2)n(C)n1 (some centres undefined) | 0.035 | 2 (≈ 1.11 µg/mL) |  |  | 
CCc1cc(C(=O)N[C@@H]2C[C@@H](C(=O)Nc3ccn(Cc4ccc(F)cc4)n3)N(C(=O)c3coc4ccccc34)C2)n(C)n1 | 0.005 | 4 (≈ 2.33 µg/mL) |  |  | 
CCc1cc(C(=O)N[C@@H]2C[C@@H](C(=O)NCCc3ccc(F)cc3)N(C(=O)c3coc4ccccc34)C2)n(C)n1 | 0.006 | 1 (≈ 0.532 µg/mL) |  |  | 
CCc1cc(C(=O)N[C@@H]2C[C@@H](C(=O)NCc3nc4ccccc4o3)N(C(=O)c3coc4ccccc34)C2)n(C)n1 | 0.003 | 0.5 (≈ 0.27 µg/mL) |  |  | 
CCCNC(=O)[C@@H]1C[C@@H](NC(=O)c2cc(CC)nn2C)CN1C(=O)c1coc2ccccc12 | 0.021 | 15.6 (≈ 7.04 µg/mL) |  |  | 
CCc1cc(C(=O)N[C@@H]2C[C@@H](C(=O)NCc3ccccc3)N(C(=O)c3coc4ccccc34)C2)n(C)n1 | 0.041 | 4 (≈ 2 µg/mL) |  |  | 
CCc1cc(C(=O)N[C@@H]2C[C@@H](C(=O)NCc3ccc(C)o3)N(C(=O)c3coc4ccccc34)C2)n(C)n1 | 0.021 | 1.5 (≈ 0.755 µg/mL) |  |  | 
CCCn1nc(CC)cc1C(=O)N[C@@H]1C[C@@H](C(=O)NCC(=O)OC)N(C(=O)c2coc3ccccc23)C1 | 0.011 | 1 (≈ 0.51 µg/mL) |  |  | 
CCc1cc(C(=O)N[C@@H]2C[C@@H](C(=O)Nc3ccn(Cc4c(F)cccc4F)n3)N(C(=O)c3coc4ccccc34)C2)n(C)n1 | 0.004 | 0.7 (≈ 0.421 µg/mL) |  |  | 
CCc1cc(C(=O)N[C@@H]2C[C@@H](C(=O)NC3CCOC3=O)N(C(=O)c3coc4ccccc34)C2)n(C)n1 (some centres undefined) | 0.08 | > 31 |  |  | 
CCc1cc(C(=O)N[C@@H]2C[C@@H](C(N)=O)N(C(=O)c3coc4ccccc34)C2)n(C)n1 | 0.012 | 3 (≈ 1.23 µg/mL) |  |  | 
CCc1cc(C(=O)N[C@@H]2C[C@@H](C(=O)NCCO)N(C(=O)c3coc4ccccc34)C2)n(CC)n1 | 0.003 | 1 (≈ 0.468 µg/mL) |  |  | 
CCc1cc(C(=O)N[C@@H]2C[C@@H](C(=O)O)N(C(=O)c3coc4ccccc34)C2)n(C)n1 | 1.29 |  |  |  | 
CCc1cc(C(=O)N[C@@H]2C[C@@H](C(=O)NCC(N)=O)N(C(=O)c3coc4ccccc34)C2)n(C)n1 |  |  |  |  | Active
CCNC[C@@H]1C[C@@H](NC(=O)c2cc(CC)nn2C)CN1C(=O)c1coc2ccccc12 | 0.44 | > 31 |  |  | 
CCNC(=O)[C@@H]1C[C@@H](NC(=O)c2cc(CC)nn2C)CN1C(=O)c1ccc2sccc2c1 | 0.121 |  |  |  | 
CCc1cc(C(=O)N[C@@H]2CCN(C(=O)c3coc4ccccc34)C2)n(C)n1 | 0.12 | > 31 |  |  | 
COC(=O)CNC(=O)[C@@H]1C[C@@H](NC(=O)c2cc(CC(C)C)nn2C)CN1C(=O)c1coc2ccccc12 | > 1 | > 31 |  |  | 
